Measured values: PMC10311245, “Novel leaderless bacteriocin geobacillin 6 from thermophilic bacterium Parageobacillus thermoglucosidasius” (Frontiers in Microbiology, 2023)
No end group written: not given here.

Key:
[1] = CD spectroscopy, aqueous buffers; reversible two-state conversion between helical and unfolded forms; ref Hammond et al., 2020; cited from earlier work
Excerpt: A recent study using the CD spectroscopy method confirmed the formation of helical structures in epidermicin NI01 and aureocin A53 in aqueous buffers. […] Due to these interesting findings, we decided to employ a thermal shift assay, also known as differential scanning fluorimetry (DSF), to analyze the thermal denaturation of Geo6 under different pH ranges and temperatures. Additionally, to the best of our knowledge, this ...

[2] = Thermal shift assay (differential scanning fluorimetry, SYPRO Orange); format: physicochemical; conditions: DSF, called inconclusive; for Melting temperature (Tm): 20–95°C, triplicate
Description: As an indicator of thermal denaturation in varying pH or other conditions a fluorescent SYPRO Orange dye (Invitrogen) that binds to hydrophobic parts of protein during its unfolding was used in this work. SYPRO Orange 50× stock solution was prepared by diluting 2.5 μl of 5,000× concentrate into 250 μl of deionized (DI) water. A volume of 2.5 μl of 50× SYPRO Orange was aliquoted into a white HardShell 96-well PCR plate (Bio-Rad). Different pH buffer solutions (25 mM Briton-Robinson, pH 3–11; [Bendikienė et al., 2004]) were added to aliquoted SYPRO Orange followed by adding an appropriately diluted solution of purified Geo6 into the wells at a final concentration of 0.25 nmol/ml (1.3 μg/ml). The final volume of the mixture was 25 μl. The negative control was 25 mM of Briton-Robinson buffer solutions in a range of pH 3 to 11, with 2.5 μl of SYPRO Orange. Lysozyme (final concentration of 100 μg/ml) diluted in 25 mM Briton-Robinson buffer (pH 5 and 6) and mixed with 2.5 μl of SYPRO Orange was used as a positive control. A curve experiment for DNA with the elimination of the initial denaturation step at 95°C was used. The melt curve temperature range was set from 20°C to 95°C in increments of 0.5°C for 5 s. Each experimental condition was prepared in triplicate. Thermal shift analysis or differential scanning fluorimetry (DSF) of Geo6 was performed in CFX Touch Real TIME PCR System (Bio-Rad) using CFX Manager (Bio-Rad) software.

[3] = tested on: Geobacillus thermodenitrificans DSM 465^T; format: cell-based
Description: (§1) MICs of Geo6 were determined according to the method of [Wiegand et al. (2008)] with some modifications. An indicator strain sensitive to bacteriocin was grown overnight at 55°C in a thermoshaker. The next day it was inoculated (2–3%) into fresh medium and cultivated until OD reached 1–1.5. The culture was further diluted and adjusted to 1 × 10^6 CFU/ml. A 95 μl of the medium was mixed with 5 μl of Geo6 and serial two-fold dilutions of suspension were made with the medium. Next, diluted mixtures were dispersed (100 μl) in a 96-well plate. A volume of 100 μl of previously prepared cell suspension was dispersed and mixed with the diluted bacteriocin in every well on the plate. As a result, the final volume of suspension in the well containing diluted bacteriocin and bacteria cells was 200 μl and the final concentration of the bacteria culture in the well was 5 × 10^5 CFU/ml. For each experiment, three replicates were made in the plate. Wells with positive controls contained a mixture of medium (95 μl) and Geo6 (5 μl), and negative controls contained bacteria suspension (5 × 10^5 CFU/ml) in the medium (100 μl). The plate was placed into a bag to prevent medium evaporation and put into a box, which was incubated overnight at 55°C in a thermoshaker. The next day, the growth inhibition was evaluated in the wells of the plate.

[4] = tested on: Geobacillus kaustophilus HTA 426; format: cell-based
Description: as §1

[5] = tested on: Geobacillus lituanicus DSM 15325^T; format: cell-based
Description: as §1

[6] = tested on: Geobacillus thermoleovorans DSM 5366^T; format: cell-based
Description: as §1

[7] = tested on: Parageobacillus toebii DSM 14590^T; format: cell-based
Description: as §1

[8] = tested on: G. kaustophilus HTA 426^T; assay: Live/dead assay (membrane integrity, SYTO9 and PI); format: cell-based, Geobacillus kaustophilus; conditions: 600 nM Geo6, 30 min, BHI, 55°C; fluorescence microscopy; red = damaged membrane
Description: An indicator strain G. kaustophilus HTA 426^T sensitive to bacteriocin was grown in BHI medium at 55°C till OD 0.5 was reached. Next, the bacteria culture was treated with 600 nM of Geo6 and further cultivated for 30 min. Then, the cell culture was centrifuged at 3000 ×g for 5 min and further washed two times with 0.9% NaCl solution (centrifuged at 3000 ×g for 5 min). After the last wash, cells were suspended in 0.9% NaCl solution and stained using LIVE/DEAD BacLight Bacterial Viability Kit (Invitrogen) containing SYTO9 and […] according to manufacturers’ recommendations. Cells were incubated in the dark at room temperature for 15 min. Next, cells were centrifuged at 3000 ×g for 5 min and washed two times with 0.9% NaCl solution (centrifuged at 3000 ×g for 5 min). Further, 10 μl of Geo6 treated cells and nontreated control cells suspensions were spotted onto objective slides and examined using a fluorescence microscope using filters FITC (480/500 nm) and Texas Red (490/635 nm).

[9] = Bacteriocin thermostability (activity by spot on a lawn assay after incubation); format: physicochemical; conditions: spot on a lawn read-out; for Antibacterial activity retained after heat treatment: two-fold dilutions
Description: […] After incubation, serial two-fold dilutions of samples were made using medium, and further antibacterial activity of bacteriocin was assessed by spot on a lawn assay.

[10] = Bacteriocin stability in different pH ranges (activity by spot on a lawn assay after incubation); format: physicochemical; conditions: pH range 3–11, 25 mM Britton-Robinson buffer, 1:20, room temperature 2 h, neutralized to pH 7; spot on a lawn read-out
Description: For evaluation of stability at different pH ranges, purified recombinant Geo6 was mixed with 25 mM Britton-Robinson buffer solutions ([Ebihara et al., 2016]) with different pH values in a ratio of 1:20. After incubation at room temperature for 2 h samples were neutralized with NaOH or HCl solutions to pH 7. Further, samples were diluted two-fold using a medium and assessed for antibacterial activity using spot on a lawn assay.

[11] = tested on: P. dextrinicus JCM 5887^T; conditions: ref Iwatani et al., 2007; cited from earlier work
Excerpt: (§2) For comparison, previous studies have shown that pallidocin, a glycocin-type bacteriocin produced by thermophilic bacteria A. pallidus strain 8, was active in the pM range against other thermophiles, and a 2.4 pM concentration of pallidocin inhibited the growth of thermophilic bacterium P. genomospecies 1 strain NUB36187 ([Kaunietis et al., 2019]). Other leaderless bacteriocins are active in the μM and nM ranges ([Fujita et al., 2007]; [Iwatani et al., 2007]) and have a broad spectrum of activity.

Escherichia coli JM109 = conditions: ref Iwatani et al., 2007; cited from earlier work
Excerpt: as §2

[12] = tested on: L. sakei subsp. sakei JCM 1157^T; conditions: ref Iwatani et al., 2007; cited from earlier work
Excerpt: as §2

B. coagulans JCM 2257^T = conditions: ref Iwatani et al., 2007; cited from earlier work
Excerpt: as §2

B. campestris ATCC 43754 = conditions: ref Acedo et al., 2016; cited from earlier work
Excerpt: as §2

L. lactis ATCC 19257 = conditions: ref Acedo et al., 2016; cited from earlier work
Excerpt: as §2

[13] = tested on: P. genomospecies 1 strain NUB36187; conditions: thermophilic bacterium; ref Kaunietis et al., 2019; cited from earlier work
Excerpt: as §2

## epidermicin NI01
[1]
  Denaturation temperature: 60 °C

## GMATFLRIVAQLSSKAAKWALDNKDKVLKWIRDGMAIDWIIDKINDIVG [Geo6, geobacillin 6]
[2]; 25 mM Briton-Robinson buffer pH 8, 0.25 nmol/ml (1.3 μg/ml)
  Melting temperature (Tm): none
[2]; 25 mM Briton-Robinson buffer pH 9, 0.25 nmol/ml (1.3 μg/ml)
  Melting temperature (Tm): 76.75±1.77 °C
[2]; 25 mM Briton-Robinson buffer pH 10, 0.25 nmol/ml (1.3 μg/ml)
  Melting temperature (Tm): 76.5 °C
[2]; 25 mM Briton-Robinson buffer pH 11, 0.25 nmol/ml (1.3 μg/ml)
  Melting temperature (Tm): 80.5±0.7 °C
[2]; range of pH 9–11, 20–95°C
  Melting temperatures (Tm), partial unfolding: 76.5–80.5 °C
[3]
  MIC: 2.34 µM
[4]
  MIC: 0.293 µM
[5]
  MIC: 0.585 µM
[6]
  MIC: 0.585 µM
[7]
  MIC: 4.45 µM
[8]
  Membrane integrity (SYTO9/PI fluorescence of treated cells): all the cells exhibited red fluorescence
[9]; 60°C for 2 h
  Antibacterial activity retained after heat treatment: 100%
[9]; 70°C for 2 h
  Antibacterial activity retained after heat treatment: 100%
[9]; 95°C for 6 h
  Antibacterial activity retained after heat treatment: did not abolish its activity
[9]; 95°C for 6 h, listed as Geobacillin 6
  Antibacterial activity retained after heat treatment: 100%
[9]; 100°C for 2 h
  Antibacterial activity retained after heat treatment: 100%
[9]; room temperature for 24 h
  Antibacterial activity retained after incubation at room temperature: 100%
[10]
  Antibacterial activity retained after incubation at different pH: 100%

## lacticin Q
[11]
  MIC: 0.0073 µM
Escherichia coli JM109
  Antibacterial activity: No activity was detected
[12]
  MIC: 0.0032 µM
B. coagulans JCM 2257^T
  MIC: 0.0016 µM

## aureocin A54 (MSWLNFLKYIAKYGKKAVSAAWKYKGKVLEWLNVGPTLEWVWQKLKKIAGL; UniProt Q8GPI4 1-51, looked up)
B. campestris ATCC 43754
  MIC: 2 µM
L. lactis ATCC 19257
  MIC: 0.25 µM

## pallidocin
[13]
  Concentration that inhibited growth: 2.4 pM
